Data published in US20250270172A1, “Pyrimidine Derivatives As Modulators of the 5-HT2A Serotonin Receptor Useful For The Treatment of Disorders Related Thereto” (Arena Pharmaceuticals, Inc., priority 2020, published 2025).
Where “and” joins values, the source holds several entries; their conditions need not be identical. Equal entries are not always repeated.

Key:
5-HT2C = 5-HT2C (Homo sapiens (Human), UniProt P28335); experiment: HTRF IP-One antagonist assay, 5-HT2C; assay type: cell-based; details: HEK293 cells stably expressing receptor, inositol phosphate accumulation, 80 nM 5-HT in Assay Buffer;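 further: clonal HEK293 line with low 5-HT2C density (10–20 fmol/mg), HTRF detection of IP-One, 10-point dose curves from 10 µM in 5-fold steps, triplicate points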
Sequence of 5-HT2C (P28335 33-458): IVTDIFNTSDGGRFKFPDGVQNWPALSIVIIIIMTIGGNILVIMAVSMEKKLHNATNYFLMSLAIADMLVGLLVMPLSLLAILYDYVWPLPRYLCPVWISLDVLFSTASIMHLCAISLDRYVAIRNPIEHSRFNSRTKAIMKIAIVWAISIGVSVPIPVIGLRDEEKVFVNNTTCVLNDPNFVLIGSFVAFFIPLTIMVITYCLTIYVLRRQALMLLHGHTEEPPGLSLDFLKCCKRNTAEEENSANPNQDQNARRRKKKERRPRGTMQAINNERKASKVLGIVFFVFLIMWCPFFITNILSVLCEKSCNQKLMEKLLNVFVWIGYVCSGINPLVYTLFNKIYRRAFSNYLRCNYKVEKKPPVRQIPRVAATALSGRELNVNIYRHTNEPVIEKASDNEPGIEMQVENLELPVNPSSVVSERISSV

5-HT2A [1] = molecular target: T1, 5-HT2A (Homo sapiens (Human), UniProt P28223); experiment: HTRF IP-One antagonist assay, 5-HT2A; assay type: cell-based; details: HEK293 cells stably expressing receptor, inositol phosphate accumulation, 80 nM 5-HT in Assay Buffer;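 further: clonal line with low receptor density (about 50–70 fmol/mg), 10-point dose-response from 10 µM in 5-fold steps, HTRF detection after 1 hr, triplicate points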
T1 sequence (P28223 whole entry): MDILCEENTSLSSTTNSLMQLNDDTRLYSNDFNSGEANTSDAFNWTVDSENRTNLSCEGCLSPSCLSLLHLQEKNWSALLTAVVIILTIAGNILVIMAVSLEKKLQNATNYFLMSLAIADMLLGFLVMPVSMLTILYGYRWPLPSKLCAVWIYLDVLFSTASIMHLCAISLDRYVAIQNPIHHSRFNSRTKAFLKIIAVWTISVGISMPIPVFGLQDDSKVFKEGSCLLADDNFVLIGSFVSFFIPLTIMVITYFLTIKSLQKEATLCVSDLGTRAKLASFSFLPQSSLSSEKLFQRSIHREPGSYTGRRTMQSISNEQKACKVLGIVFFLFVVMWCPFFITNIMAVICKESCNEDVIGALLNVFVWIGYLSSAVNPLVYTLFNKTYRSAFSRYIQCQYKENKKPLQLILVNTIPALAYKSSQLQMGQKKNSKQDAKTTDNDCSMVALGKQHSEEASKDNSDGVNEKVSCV

5-HT2A [2] = molecular target: T1, 5-HT2A; experiment: Radioligand binding assay, [^3H]5-HT competition, 5-HT2A; details: [^3H]5-HT radioligand, membranes of HEK293 cells expressing recombinant 5-HT2A; Ki from IC50 by Cheng-Prusoff; read-out: 5-HT2A serotonin binding Ki value
5-HT2B = 5-HT2B (Homo sapiens (Human), UniProt P41595); experiment: HTRF IP-One antagonist assay, 5-HT2B; assay type: cell-based; details: HEK293 cells stably expressing receptor, inositol phosphate accumulation, 80 nM 5-HT in Assay Buffer;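 further: clonal HEK293 line with low 5-HT2B expression (estimated 150-200 fmol/mg by radioligand binding), IP-One HTRF readout, 10-point curves from 10 µM in 5-fold steps, triplicate points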
Sequence of 5-HT2B (P41595 whole entry): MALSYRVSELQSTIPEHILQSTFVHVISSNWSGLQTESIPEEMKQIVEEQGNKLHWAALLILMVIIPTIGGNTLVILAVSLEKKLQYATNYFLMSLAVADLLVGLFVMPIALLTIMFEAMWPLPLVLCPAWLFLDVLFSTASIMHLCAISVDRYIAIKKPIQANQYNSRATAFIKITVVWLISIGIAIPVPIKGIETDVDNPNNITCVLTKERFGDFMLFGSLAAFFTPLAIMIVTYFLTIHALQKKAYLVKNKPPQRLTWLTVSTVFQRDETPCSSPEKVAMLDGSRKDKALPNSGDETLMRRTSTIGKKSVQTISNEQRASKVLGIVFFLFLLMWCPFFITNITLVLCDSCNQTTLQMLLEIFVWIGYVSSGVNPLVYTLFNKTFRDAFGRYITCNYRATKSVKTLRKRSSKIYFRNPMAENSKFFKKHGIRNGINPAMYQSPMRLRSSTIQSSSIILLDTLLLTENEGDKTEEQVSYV

| Compound | IC50 (5-HT2C) [nM] | IC50 (5-HT2A [1]) [nM] | Ki (5-HT2A [2]) | IC50 (5-HT2B) [nM] |
| --- | --- | --- | --- | --- |
| Cc1ncnc(C)c1-c1cc(NC(=O)c2cccn2C)ccc1OCCN1CCCC1 [Compound 200, N-(3-(4,6-dimethylpyrimidin-5-yl)-4-(2-(pyrrolidin-1-yl)ethoxy)phenyl)-1-methyl-1H-pyrrole-2-carboxamide] | 100000 | 11.7 | 3.72 nM | 100000 |
| Cc1ncnc(C)c1-c1cc(NC(=O)c2ccnn2C)ccc1OCCN1CCCC1 [Compound 202, N-(3-(4,6-dimethylpyrimidin-5-yl)-4-(2-(pyrrolidin-1-yl)ethoxy)phenyl)-1-methyl-1H-pyrazole-5-carboxamide] | 100000 | 6.35 | 5.25 nM | 100000 |
| Cc1ncnc(C)c1-c1cc(NC(=O)c2cc(F)ccn2)ccc1OCCN1CCCC1 [Compound 209, N-(3-(4,6-dimethylpyrimidin-5-yl)-4-(2-(pyrrolidin-1-yl)ethoxy)phenyl)-4-fluoropicolinamide] | 100000 | 26.2 | 4.8 nM | 100000 |
| Cc1ncsc1C(=O)Nc1ccc(OCCN2CCCC2)c(-c2c(C)ncnc2C)c1 [Compound 214, N-(3-(4,6-dimethylpyrimidin-5-yl)-4-(2-(pyrrolidin-1-yl)ethoxy)phenyl)-4-methylthiazole-5-carboxamide] | 100000 | 5.16 | 3.25 nM | 100000 |
| Cc1ncoc1C(=O)Nc1ccc(OCCN2CCCC2)c(-c2c(C)ncnc2C)c1 [Compound 217, N-(3-(4,6-dimethylpyrimidin-5-yl)-4-(2-(pyrrolidin-1-yl)ethoxy)phenyl)-4-methyloxazole-5-carboxamide] | 100000 | 18.5 | 7.23 nM | 100000 |
| Cc1ncnc(C)c1-c1cc(NC(=O)C2C3COCC32)ccc1OCCN1CCCC1 (stereo not shown) [Compound 232, N-(3-(4,6-dimethylpyrimidin-5-yl)-4-(2-(pyrrolidin-1-yl)ethoxy)phenyl)-3-oxabicyclo[3.1.0]hexane-6-carboxamide] | 100000 | 140 | 24.5 nM | 100000 |
| Cc1ncnc(C)c1-c1cc(NC(=O)C2(F)CC2)ccc1OCCN1CCCC1 [Compound 233] | 100000 | 8.55 | 3.81 nM and 4.66 nM | 100000 |
| Cc1ncnc(C)c1-c1cc(NC(=O)Cn2cccc2)ccc1OCCN1CCCC1 [Compound 243, N-[3-(4,6-dimethylpyrimidin-5-yl)-4-(2-pyrrolidin-1-ylethoxy)phenyl]-2-pyrrol-1-yl-acetamide] | 100000 | 14.8 | 8.59 nM | 100000 |
| COC1(C(=O)Nc2ccc(OCCN3CCCC3)c(-c3c(C)ncnc3C)c2)CC1 [Compound 244, N-[3-(4,6-dimethylpyrimidin-5-yl)-4-(2-pyrrolidin-1-ylethoxy)phenyl]-1-methoxy-cyclopropanecarboxamide] | 100000 | 13.5 | 6.51 nM | 100000 |
| Cc1ncnc(C)c1-c1cc(NC(=O)C2CC2)ccc1OCCN1CCCC1 [Compound 245, N-[3-(4,6-dimethylpyrimidin-5-yl)-4-(2-pyrrolidin-1-ylethoxy)phenyl]cyclopropanecarboxamide] | 100000 | 9.66 | 4.3 nM | 100000 |
| Cc1ncnc(C)c1-c1cc(NC(=O)Cc2cncs2)ccc1OCCN1CCCC1 [Compound 247, N-[3-(4,6-dimethylpyrimidin-5-yl)-4-(2-pyrrolidin-1-ylethoxy)phenyl]-2-thiazol-5-yl-acetamide] | 100000 | 10.6 | 4.47 nM | 100000 |
| Cc1ncsc1CC(=O)Nc1ccc(OCCN2CCCC2)c(-c2c(C)ncnc2C)c1 [Compound 250, N-(3-(4,6-dimethylpyrimidin-5-yl)-4-(2-(pyrrolidin-1-yl)ethoxy)phenyl)-2-(4-methylthiazol-5-yl)acetamide] | 100000 | 13.9 | 9.04 nM | 100000 |
| Cc1ncnc(C)c1-c1cc(NC(=O)CCc2nccs2)ccc1OCCN1CCCC1 [Compound 256, N-(3-(4,6-dimethylpyrimidin-5-yl)-4-(2-(pyrrolidin-1-yl)ethoxy)phenyl)-3-(thiazol-2-yl)propanamide] | 100000 | 56 | 9.89 nM | 100000 |
| Cc1ncnc(C)c1-c1cc(NC(=O)CCc2cncs2)ccc1OCCN1CCCC1 [Compound 257, N-(3-(4,6-dimethylpyrimidin-5-yl)-4-(2-(pyrrolidin-1-yl)ethoxy)phenyl)-3-(thiazol-5-yl)propanamide] | 100000 | 33.5 | 14.8 nM | 100000 |
| Cc1ncnc(C)c1-c1cc(NC(=O)Cc2ccno2)ccc1OCCN1CCCC1 [Compound 263, N-(3-(4,6-dimethylpyrimidin-5-yl)-4-(2-(pyrrolidin-1-yl)ethoxy)phenyl)-2-(isoxazol-5-yl)acetamide] | 100000 | 35.9 | 10.1 nM | 100000 |
| Cc1ncc(CC(=O)Nc2ccc(OCCN3CCCC3)c(-c3c(C)ncnc3C)c2)s1 [Compound 266, N-(3-(4,6-dimethylpyrimidin-5-yl)-4-(2-(pyrrolidin-1-yl)ethoxy)phenyl)-2-(2-methylthiazol-5-yl)acetamide] | 100000 | 5.23 | 4.11 nM | 100000 |
| Cc1ncnc(C)c1-c1cc(NC(=O)Cc2ccn(C)c2)ccc1OCCN1CCCC1 [Compound 268, N-[3-(4,6-dimethylpyrimidin-5-yl)-4-(2-pyrrolidin-1-ylethoxy)phenyl]-2-(1-methylpyrrol-3-yl)acetamide] | 100000 | 62.4 | 7.78 nM | 100000 |
| Cc1ncnc(C)c1-c1cc(NC(=O)c2ccccc2)ccc1OCCN1CCCC1 [Compound 271, N-[3-(4,6-dimethylpyrimidin-5-yl)-4-(2-pyrrolidin-1-ylethoxy)phenyl]benzamide] | 100000 | 6.1 | 3.26 nM | 100000 |
| Cc1ncnc(C)c1-c1cc(NC(=O)c2ccc(F)cc2)ccc1OCCN1CCCC1 [Compound 272, N-(3-(4,6-dimethylpyrimidin-5-yl)-4-(2-(pyrrolidin-1-yl)ethoxy)phenyl)-4-fluorobenzamide] | 100000 | 7.8 | 2.43 nM | 2680 |
| Cc1ncnc(C)c1-c1cc(NC(=O)Cc2cccc(F)c2)ccc1OCCN1CCCC1 [Compound 275, N-(3-(4,6-dimethylpyrimidin-5-yl)-4-(2-(pyrrolidin-1-yl)ethoxy)phenyl)-2-(3-fluorophenyl)acetamide] | 100000 | 6.32 | 1.7 nM | 100000 |
| COc1ccc(CC(=O)Nc2ccc(OCCN3CCCC3)c(-c3c(C)ncnc3C)c2)cc1 [Compound 276, N-(3-(4,6-dimethylpyrimidin-5-yl)-4-(2-(pyrrolidin-1-yl)ethoxy)phenyl)-2-(4-methoxyphenyl)acetamide] | 100000 | 3.07 | 0.843 nM | 100000 |
| Cc1ncnc(C)c1-c1cc(NC(=O)c2c(F)cnn2C)ccc1OCCN1CCCC1 [Compound 290, N-[3-(4,6-dimethylpyrimidin-5-yl)-4-(2-pyrrolidin-1-ylethoxy)phenyl]-4-fluoro-2-methyl-pyrazole-3-carboxamide] | 100000 | 7.36 | 3.86 nM | 100000 |
| CCOC1CC1C(=O)Nc1ccc(OCCN2CCCC2)c(-c2c(C)ncnc2C)c1 (stereo not shown) [Compound 291, N-(3-(4,6-dimethylpyrimidin-5-yl)-4-(2-(pyrrolidin-1-yl)ethoxy)phenyl)-2-ethoxycyclopropane-1-carboxamide] | 100000 | 9.75 | 5.04 nM and 15.5 nM | 100000 |
| Cc1ncnc(C)c1-c1cc(NC(=O)C2(CF)CC2)ccc1OCCN1CCCC1 [Compound 293, N-(3-(4,6-dimethylpyrimidin-5-yl)-4-(2-(pyrrolidin-1-yl)ethoxy)phenyl)-1-(fluoromethyl)cyclopropane-1-carboxamide] | 100000 | 15.9 | 8.56 nM | 9370 |
| Cc1ncnc(C)c1-c1cc(NC(=O)c2ccnn2C)ccc1OCCN1CCC1 [Compound 304, N-[4-[2-(azetidin-1-yl)ethoxy]-3-(4,6-dimethylpyrimidin-5-yl)phenyl]-2-methyl-pyrazole-3-carboxamide] | 100000 | 8.86 | 7.25 nM | 100000 |
| Cc1ccccc1C(=O)Nc1ccc(OCCN2CCC2)c(-c2c(C)ncnc2C)c1 [Compound 321, N-(4-(2-(azetidin-1-yl)ethoxy)-3-(4,6-dimethylpyrimidin-5-yl)phenyl)-2-methylbenzamide] | 100000 | 25.7 |  | 5400 |
| Cc1ncnc(C)c1-c1cc(NC(=O)c2ncsc2C)ccc1OC[C@H]1CCCCN1 [Compound 435, (R)—N-(3-(4,6-dimethylpyrimidin-5-yl)-4-(piperidin-2-ylmethoxy)phenyl)-5-methylthiazole-4-carboxamide] | 100000 | 43.2 | 10.7 nM |  |
| Cc1ncnc(C)c1-c1cc(NC(=O)c2cccn2C)ccc1OC[C@H]1CCCCN1 [Compound 436, (R)—N-(3-(4,6-dimethylpyrimidin-5-yl)-4-(piperidin-2-ylmethoxy)phenyl)-1-methyl-1H-pyrrole-2-carboxamide] | 100000 | 27.2 | 6.05 nM |  |
| CCC[C@@H](F)C(=O)Nc1ccc(OC[C@H]2CCCCN2)c(-c2c(C)ncnc2C)c1 [Compound 441, (R)—N-[3-(4,6-dimethylpyrimidin-5-yl)-4-[[(2R)-2-piperidyl]methoxy]phenyl]-2-fluoro-pentanamide] | 100000 | 12.1 | 5.67 nM |  |
